Data as given in article PMC9292215 (Clinical Pharmacology and Therapeutics, 2021).

Experiments:
[1] = Plasma pharmacokinetics of BIA 10-2474 and metabolites; assay type: in vivo, human
[2] = cited from earlier work
[3] = target: T1, FAAH (Homo sapiens, UniProt O00519); conditions: cited from earlier work
T1 sequence (O00519 1-579): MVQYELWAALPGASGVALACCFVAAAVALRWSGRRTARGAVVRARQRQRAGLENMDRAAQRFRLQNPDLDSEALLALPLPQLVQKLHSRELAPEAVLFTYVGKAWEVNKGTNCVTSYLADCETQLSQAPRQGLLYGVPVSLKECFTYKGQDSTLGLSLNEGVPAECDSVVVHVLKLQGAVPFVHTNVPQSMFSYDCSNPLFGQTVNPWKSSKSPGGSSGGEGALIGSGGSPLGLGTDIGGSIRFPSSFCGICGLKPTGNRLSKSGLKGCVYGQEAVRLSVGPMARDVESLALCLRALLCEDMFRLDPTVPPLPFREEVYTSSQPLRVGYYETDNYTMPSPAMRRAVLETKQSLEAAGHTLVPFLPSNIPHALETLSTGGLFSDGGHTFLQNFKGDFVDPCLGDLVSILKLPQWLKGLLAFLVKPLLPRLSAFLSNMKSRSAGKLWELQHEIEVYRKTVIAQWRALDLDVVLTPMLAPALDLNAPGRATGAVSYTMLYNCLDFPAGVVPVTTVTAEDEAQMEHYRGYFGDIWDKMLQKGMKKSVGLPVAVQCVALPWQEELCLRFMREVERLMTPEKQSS

[4] = 20 mg BIA 10-2474 once daily, Day 10
[5] = after single dose 40 mg BIA 10-2474
[6] = after single dose 100 mg BIA 10-2474
[7] = repeated dose levels below 20 mg for 10 days
[8] = 20 mg BIA 10-2474 once daily, Day 1

Compound | AUC0–t of metabolite [1, 4] | Cmax of metabolite [1, 4] | tmax of metabolite [1, 4] | AUC0-t of metabolite [1, 5] | Cmax of metabolite [1, 5] | tmax of metabolite [1, 5] | AUC0-t of metabolite [1, 6] | Cmax of metabolite [1, 6] | tmax of metabolite [1, 6] | plasma abundance of metabolite [1, 7] | plasma abundance of metabolite ([1]; single dose levels below 40 mg) | tested dose as multiple of the dose required for complete FAAH inhibition [3] | further results
CN(C(=O)n1cnc(-c2cccnc2)c1)C1CCCCC1 [BIA 10-2445] | 105 (64.7) ng⋅hour/mL | 8.27 (3.42) ng/mL | 4.0 (4.0–12.0) hour | 51.3 (71.4) ng hour/mL | 4.66 (44.7) ng/mL | 12.0 (3.0–24.0) hour | 303 (68.3) ng hour/mL | 11.4 (27.1) ng/mL | 12.0 (3.0–24.0) hour | undetectable | undetectable | – | –
O=C(NC1CCCCC1)n1cnc(-c2ccc[n+]([O-])c2)c1 [BIA 10-2583] | – | – | – | – | – | – | – | – | – | undetectable | undetectable | – | –
CN(C(=O)n1cnc(-c2cccnc2)c1)[C@H]1CC[C@H](O)CC1 [BIA 10-2631, N-(trans-4-hydroxycyclohexyl)-N-methyl-4-pyridin-3-yl-1H-imidazole-1-carboxamide] | 203 (197) ng⋅hour/mL | 7.41 (3.9) ng/mL | 4.0 (2.0–24.0) hour | – | – | – | 359 (36.3) ng hour/mL | 7.1 (30.9) ng/mL | 18.0 (2.0–24.0) hour | undetectable | undetectable | – | –
CN(C(=O)n1cnc(-c2ccc[n+]([O-])c2)c1)[C@H]1CC[C@H](O)CC1 [BIA 10-2639, N-(trans-4-hydroxycyclohexyl)-N-methyl-4-(1-oxidopyridin-3-yl)l-1H-imidazole-1-carboxamide] | 47.3 (20.6) ng⋅hour/mL | 5.8 (1.7) ng/mL | 1.0 (1.0–2.0) hour | 59.2 (30.6) ng hour/mL | 8.09 (30.7) ng/mL | 2.0 (1.0–3.0) hour | 206 (40.7) ng hour/mL | 19.6 (29.1) ng/mL | 2.0 (1.0–3.0) hour | undetectable | undetectable | – | AUC0–t of metabolite [1, 8]: 21.8 (6.8) ng⋅hour/mL; AUC0–∞ of metabolite [1, 8]: 26.6 (8.5) ng⋅hour/mL; Cmax of metabolite [1, 8]: 4.1 (0.5) ng/mL; t1/2 of metabolite [1, 8]: 9.94 (1.79) h; tmax of metabolite [1, 8]: 1.0 (1.0–2.0) hour; t1/2 of metabolite [1, 5]: 9.78 (67.1) hour; AUC0-∞ of metabolite [1, 6]: 271 (35.6) ng hour/mL; t1/2 of metabolite [1, 6]: 9.20 (15.2) hour
O=C(Nc1cnccc1Cl)N1CCN(Cc2ccc3c(c2)OC(F)(F)O3)CC1 [JNJ-42165279] | – | – | – | – | – | – | – | – | – | – | – | at least 10 times | half-life [2]: 8 to 14 h; duration of FAAH inhibition [3]: > 24 h
O=C(Nc1cccnn1)N1CCC(=Cc2cccc(Oc3ccc(C(F)(F)F)cn3)c2)CC1 [PF-04457845] | – | – | – | – | – | – | – | – | – | – | – | 133 times | FAAH inhibition ([3]; for 6 days or more): more than 90%
